The target of one assay is CK1ε (Homo sapiens, UniProt P49674). Description: CK1ε kinase assay (Caliper LabChip electrophoretic separation of fluoresceinated peptide substrate and product). Format: biochemical. The conditions noted are these: 200 pM CK1ε, 50 μM ATP, 1.5 μM peptide, 22 hours at room temperature; read-out: CK1ε IC50 range. Here is the method:
(§1) CK1ε and CK1δ Kinase Assays
(§2) The kinase assay was performed in V-bottom 384-well plates. […] The reaction was incubated at room temperature for 22 hours and terminated by adding 45 μl of 35 mM EDTA to each sample. The reaction mixture was analyzed on the Caliper LABCHIP®3000 (Caliper, Hopkinton, Mass.) by electrophoretic separation of the unphosphorylated substrate and phosphorylated product. […] Compounds were dissolved at 10 mM in dimethylsulfoxide (DMSO) and evaluated at eleven concentrations. IC50 values were derived by non-linear regression analysis.

For a further assay, the target named is CK1δ (Homo sapiens, UniProt P48730). Description: CK1δ kinase assay (Caliper LabChip electrophoretic separation of fluoresceinated peptide substrate and product). It is filed as biochemical. The conditions noted are these: 200 pM CK1δ, 50 μM ATP, 1.5 μM peptide, 22 hours at room temperature; read-out: CK1δ IC50 range. Here is the method: as §1, §2
Chain of CK1δ (P48730 whole entry): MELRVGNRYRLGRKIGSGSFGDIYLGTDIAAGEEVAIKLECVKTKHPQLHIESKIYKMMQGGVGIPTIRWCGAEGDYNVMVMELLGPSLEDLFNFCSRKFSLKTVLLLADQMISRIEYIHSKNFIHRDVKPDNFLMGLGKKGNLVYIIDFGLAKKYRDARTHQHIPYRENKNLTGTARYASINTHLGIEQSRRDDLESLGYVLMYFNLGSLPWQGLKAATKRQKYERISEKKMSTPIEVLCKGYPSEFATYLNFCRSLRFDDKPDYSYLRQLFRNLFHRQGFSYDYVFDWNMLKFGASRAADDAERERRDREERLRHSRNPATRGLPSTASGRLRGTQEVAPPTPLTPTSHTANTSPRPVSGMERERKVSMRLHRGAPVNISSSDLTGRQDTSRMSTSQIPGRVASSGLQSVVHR

Chain of CK1ε (P49674 whole entry): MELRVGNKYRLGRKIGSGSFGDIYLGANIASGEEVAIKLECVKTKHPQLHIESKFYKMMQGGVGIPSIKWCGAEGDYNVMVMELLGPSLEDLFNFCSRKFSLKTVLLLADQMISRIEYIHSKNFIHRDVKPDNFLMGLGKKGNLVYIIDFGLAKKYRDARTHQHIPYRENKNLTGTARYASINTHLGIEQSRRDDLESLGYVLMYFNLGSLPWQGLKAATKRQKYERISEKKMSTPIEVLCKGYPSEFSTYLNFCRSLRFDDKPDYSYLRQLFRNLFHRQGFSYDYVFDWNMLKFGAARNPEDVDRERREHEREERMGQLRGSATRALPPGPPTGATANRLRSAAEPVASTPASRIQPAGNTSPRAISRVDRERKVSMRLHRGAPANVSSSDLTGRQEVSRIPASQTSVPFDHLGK

The IC50 is the concentration that gives 50% inhibition. Regarding “2-(3-Chloro-4-fluorophenyl)-N^5-(3,3-difluorocyclopentyl)-6,7-dihydropyrazolo[1,5-a]pyrazine-3,5(4H)-dicarboxamide [Compound 332]”, the IC50 at CK1ε and at CK1δ was 0.01 to 10 nM in each case.

On to `Cc1ccc(NC(=O)N2CCn3nc(-c4cccc(F)c4)c(C(N)=O)c3C2)cn1` [Compound 86, 2-(3-Fluorophenyl)-N^5-(6-methylpyridin-3-yl)-6,7-dihydropyrazolo[1,5-a]pyrazine-3,5(4H)-dicarboxamide], for which, at CK1ε, the IC50 fell in the range of 10 to 100 nM.

Turning to `NC(=O)c1c(-c2cccc(F)c2)nn2c1CN(C(=O)Nc1ccc(F)nc1)CC2` [Compound 87, 2-(3-Fluorophenyl)-N^5-(6-fluoropyridin-3-yl)-6,7-dihydropyrazolo[1,5-a]pyrazine-3,5(4H)-dicarboxamide], the IC50 at CK1ε lay in the range of 10 to 100 nM.

Take `NC(=O)c1c(-c2cccc(F)c2)nn2c1CN(C(=O)Nc1ccc(OC(F)F)cc1)CC2` [Compound 89, N^5-(4-(Difluoromethoxy)phenyl)-2-(3-fluorophenyl)-6,7-dihydropyrazolo[1,5-a]pyrazine-3,5(4H)-dicarboxamide]: the IC50 at CK1ε is 10 to 100 nM.

Regarding `NC(=O)c1c(-c2cccc(F)c2)nn2c1CN(C(=O)Nc1ccnc(Cl)c1)CC2` [Compound 90, N^5-(2-Chloropyridin-4-yl)-2-(3-fluorophenyl)-6,7-dihydropyrazolo[1,5-a]pyrazine-3,5(4H)-dicarboxamide], on CK1ε, the IC50 was in the range of 10 to 100 nM.

Regarding `CC(=O)N1CCC(NC(=O)N2CCn3nc(-c4cccc(F)c4)c(C(N)=O)c3C2)CC1` [Compound 97], at CK1ε, the IC50 lay within 10 to 100 nM.

For the compound `NC(=O)c1c(-c2cccc(F)c2)nn2c1CN(C(=O)NC1CCN(S(=O)(=O)C3CC3)CC1)CC2` [Compound 102, N^5-(1-(Cyclopropylsulfonyl)piperidin-4-yl)-2-(3-fluorophenyl)-6,7-dihydropyrazolo[1,5-a]pyrazine-3,5(4H)-dicarboxamide], the IC50 at CK1ε fell in the range of 10 to 100 nM.

As to `CC(C)(C)NC(=O)N1CCn2nc(-c3cc(F)cc(F)c3)c(C(N)=O)c2C1` [Compound 105, N^5-(tert-Butyl)-2-(3,5-difluorophenyl)-6,7-dihydropyrazolo[1,5-a] pyrazine-3,5(4H)-dicarboxamide], the IC50 at CK1ε fell in the range of 10 to 100 nM.

Consider `COc1cc(F)cc(-c2nn3c(c2C(N)=O)CN(C(=O)NC(C)(C)C)CC3)c1` [Compound 137, N^5-(tert-Butyl)-2-(3-fluoro-5-methoxyphenyl)-6,7-dihydropyrazolo[1,5-a] pyrazine-3,5(4H)-dicarboxamide], for which the IC50 at CK1ε was in the range of 10 to 100 nM.

As to `CSc1cccc(-c2nn3c(c2C(N)=O)CN(C(=O)NC(C)(C)C)CC3)c1` [Compound 150, N^5-(tert-Butyl)-2-(3-(methylthio)phenyl)-6,7-dihydropyrazolo[1,5-a] pyrazine-3,5(4H)-dicarboxamide], the IC50 at CK1ε is 10 to 100 nM.

As for `CC(C)(C)NC(=O)N1Cc2c(C(N)=O)c(-c3ccc(F)c(Cl)c3)nn2CC12CC2` [Compound 350, N^5′-(tert-Butyl)-2′-(3-chloro-4-fluorophenyl)-4′H-spiro[cyclopropane-1,6′-pyrazolo[1,5-a]pyrazine]-3′,5′(7′H)-dicarboxamide], on CK1ε, the IC50 fell in the range of 100 to 2000 nM.

Regarding `N#Cc1ccc(NC(=O)N2Cc3c(C(N)=O)c(-c4cccc(Cl)c4)nn3C(CF)C2)cc1` (centres unmarked) [Compound A4, 2-(3-Chlorophenyl)-N^5-(4-cyanophenyl)-7-(fluoromethyl)-6,7-dihydropyrazolo[1,5-a]pyrazine-3,5(4H)-dicarboxamide], the IC50 at CK1ε lay in the range of 0.01 to 10 nM.

Consider `N#Cc1ccc(NC(=O)N2Cc3c(C(N)=O)c(-c4cccc(Cl)c4)nn3C(C(F)F)C2)cc1` (centres unmarked) [Compound A6, 2-(3-Chlorophenyl)-N^5-(4-cyanophenyl)-7-(difluoromethyl)-6,7-dihydropyrazolo[1,5-a]pyrazine-3,5(4H)-dicarboxamide], for which, at CK1ε, the IC50 is […].

Source of the values: US9273058B2 (BRISTOL-MYERS SQUIBB COMPANY, priority 2013, dated 2016).
